Experimental data from ChEMBL document CHEMBL1201862, “PubChem BioAssay data set” (2004).
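Five compound concentrations were applied to cells in 96-well plates for 48 hours; endpoints were derived by simple linear interpolation of the resulting dose-response curve. At the GI50, growth is halved.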 Activity calls are given as the source filed them. Cut-off read from the data, not from the text of the source: active = GI50 up to about 1.1 µM and inactive = higher.

Experiments:
Assay in all cases: NCI anticancer screen, dose series, 48 h
[1] = tested on: 786-0
[2] = tested on: A549
[3] = tested on: ACHN
[4] = tested on: CAKI-1
[5] = tested on: CCRF-CEM
[6] = tested on: COLO 205
[7] = tested on: DMS-273
[8] = tested on: EKVX
[9] = tested on: HCC 2998
[10] = tested on: HCT-116
[11] = tested on: HCT-15
[12] = tested on: HOP-18
[13] = tested on: HOP-62
[14] = tested on: HOP-92
[15] = tested on: HT-29
[16] = tested on: IGROV-1
[17] = tested on: K562
[18] = tested on: KM-20L2
[19] = tested on: KM12
[20] = tested on: LOX IMVI
[21] = tested on: LXFL 529
[22] = tested on: M14
[23] = tested on: M19-MEL
[24] = tested on: MOLT-4
[25] = tested on: Malme-3M
[26] = tested on: NCI-H226
[27] = tested on: NCI-H23
[28] = tested on: NCI-H460
[29] = tested on: NCI-H522
[30] = tested on: OVCAR-3
[31] = tested on: OVCAR-4
[32] = tested on: OVCAR-5
[33] = tested on: OVCAR-8
[34] = tested on: RPMI-8226
[35] = tested on: RXF 393
[36] = tested on: SF-268
[37] = tested on: SF-295
[38] = tested on: SF-539
[39] = tested on: SK-MEL-2
[40] = tested on: SK-MEL-5
[41] = tested on: SK-OV-3
[42] = tested on: SN12C
[43] = tested on: SNB-19
[44] = tested on: SNB-75
[45] = tested on: SNB-78
[46] = tested on: SR
[47] = tested on: SW-620
[48] = tested on: TK-10
[49] = tested on: U-251
[50] = tested on: UACC-257
[51] = tested on: UACC-62
[52] = tested on: UO-31
[53] = tested on: XF498
[54] = tested on: A498
[55] = tested on: DLD-1
[56] = tested on: DMS-114
[57] = tested on: HL-60
[58] = tested on: SK-MEL-28

CC1OC(=O)C(O)=C1O (configuration not stated)
GI50 [1]: > 100 µM (inactive)
GI50 [2]: > 100 µM (inactive)
GI50 [3]: > 100 µM (inactive)
GI50 [4]: > 100 µM (inactive)
GI50 [5]: > 100 µM (inactive)
GI50 [6]: > 100 µM (inactive)
GI50 [7]: > 100 µM (inactive)
GI50 [8]: > 100 µM (inactive)
GI50 [9]: > 100 µM (inactive)
GI50 [10]: > 100 µM (inactive)
GI50 [11]: > 100 µM
GI50 [12]: > 100 µM (inactive)
GI50 [13]: > 100 µM (inactive)
GI50 [14]: > 100 µM (inactive)
GI50 [15]: > 100 µM (inactive)
GI50 [16]: > 100 µM (inactive)
GI50 [17]: > 100 µM (inactive)
GI50 [18]: > 100 µM (inactive)
GI50 [19]: > 100 µM (inactive)
GI50 [20]: > 100 µM (inactive)
GI50 [21]: > 100 µM (inactive)
GI50 [22]: > 100 µM (inactive)
GI50 [23]: > 100 µM (inactive)
GI50 [24]: > 100 µM (inactive)
GI50 [25]: > 100 µM (inactive)
GI50 [26]: > 100 µM (inactive)
GI50 [27]: > 100 µM (inactive)
GI50 [28]: > 100 µM (inactive)
GI50 [29]: > 100 µM (inactive)
GI50 [30]: > 100 µM (inactive)
GI50 [31]: > 100 µM (inactive)
GI50 [32]: > 100 µM (inactive)
GI50 [33]: > 100 µM (inactive)
GI50 [34]: > 100 µM (inactive)
GI50 [35]: > 100 µM (inactive)
GI50 [36]: 47.2 µM (inactive)
GI50 [37]: > 100 µM (inactive)
GI50 [38]: > 100 µM (inactive)
GI50 [39]: > 100 µM (inactive)
GI50 [40]: > 100 µM (inactive)
GI50 [41]: > 100 µM (inactive)
GI50 [42]: > 100 µM (inactive)
GI50 [43]: > 100 µM (inactive)
GI50 [44]: > 100 µM (inactive)
GI50 [45]: > 100 µM (inactive)
GI50 [46]: > 100 µM (inactive)
GI50 [47]: > 100 µM (inactive)
GI50 [48]: > 100 µM (inactive)
GI50 [49]: > 100 µM (inactive)
GI50 [50]: > 100 µM (inactive)
GI50 [51]: > 100 µM (inactive)
GI50 [52]: > 100 µM (inactive)
GI50 [53]: > 100 µM (inactive)

CC(=O)OC(C)C(=O)C1c2cccc(O)c2C(=O)c2c(O)cc(C)cc21 (configuration not stated)
GI50 [1]: 1.09 µM (active)
GI50 [54]: 1.59 µM (inactive)
GI50 [2]: 0.322 µM (active)
GI50 [3]: 0.579 µM (active)
GI50 [4]: 1.71 µM (inactive)
GI50 [5]: 0.711 µM (active)
GI50 [6]: 1.65 µM (inactive)
GI50 [55]: 1.75 µM (inactive)
GI50 [56]: 0.188 µM (active)
GI50 [7]: 0.634 µM (active)
GI50 [8]: 1.36 µM (inactive)
GI50 [9]: 0.429 µM (active)
GI50 [10]: 0.31 µM (active)
GI50 [11]: 0.479 µM
GI50 [57]: 0.308 µM (active)
GI50 [12]: 1.12 µM (inactive)
GI50 [13]: 0.343 µM (active)
GI50 [14]: 0.288 µM (active)
GI50 [15]: 1.66 µM (inactive)
GI50 [16]: 0.478 µM (active)
GI50 [17]: 0.354 µM (active)
GI50 [18]: 1.37 µM (inactive)
GI50 [19]: 0.33 µM (active)
GI50 [20]: 0.483 µM (active)
GI50 [23]: 0.367 µM (active)
GI50 [24]: 3.06 µM (inactive)
GI50 [25]: 0.56 µM (active)
GI50 [26]: 0.319 µM (active)
GI50 [27]: 0.324 µM (active)
GI50 [28]: 0.375 µM (active)
GI50 [29]: 1.52 µM (inactive)
GI50 [30]: 0.427 µM (active)
GI50 [31]: 0.452 µM (active)
GI50 [32]: 1.31 µM (inactive)
GI50 [33]: 1.06 µM (active)
GI50 [34]: 0.991 µM (active)
GI50 [35]: 0.259 µM (active)
GI50 [36]: 0.381 µM (active)
GI50 [37]: 0.344 µM (active)
GI50 [38]: 0.254 µM (active)
GI50 [58]: 1.01 µM (active)
GI50 [39]: 0.429 µM (active)
GI50 [40]: 0.357 µM (active)
GI50 [41]: 0.546 µM (active)
GI50 [42]: 0.879 µM (active)
GI50 [43]: 0.344 µM (active)
GI50 [44]: 0.52 µM (active)
GI50 [45]: 0.753 µM (active)
GI50 [47]: 0.502 µM (active)
GI50 [48]: 1.42 µM (inactive)
GI50 [49]: 0.26 µM (active)
GI50 [50]: 0.41 µM (active)
GI50 [52]: 0.261 µM (active)
GI50 [53]: 0.234 µM (active)
